Assays:
[1] = cited from earlier work
[2] = cited from earlier work; remark: listed apart in the source
[3] = Dynamic visual analysis (DVA) of ICG NIR fluorescence intensity, rectal lesion versus healthy background tissue; details: for initial uptake of ICG relative to background tissue: 0.25 mg per kg intravenously, initial phase; for washout of contrast agent: at 25 to 30 minutes

CC1(C)C(/C=C/C=C/C=C/C=C2\N(CCCCS(=O)(=O)O)c3ccc4ccccc4c3C2(C)C)=[N+](CCCCS(=O)(=O)[O-])c2ccc3ccccc3c21 [ICG, indocyanine green]
water solubility [1]: water-soluble but relatively hydrophobic
plasma protein binding ([2]; following intravenous injection): rapidly bound to plasma proteins with minimal leakage into the interstitium
time of excretion by the liver in bile after injection ([2]; intravenous injection): about 8 min
initial uptake of ICG relative to background tissue ([3]; benign lesions): either synchronous with the background tissue or was ahead of the background tissue
washout of contrast agent ([3]; benign lesions): most of the ICG tends to washout
initial uptake of ICG relative to background tissue ([3]; cancerous tissue): a definite lag in the initial uptake
washout of contrast agent ([3]; cancerous tissue): retains it for longer

Source: patent US20210378591A1, “PROCESS FOR VISUAL DETERMINATION OF TISSUE BIOLOGY” (UNIVERSITY COLLEGE DUBLIN, NATIONAL UNIVERSITY OF IRELAND, …, priority 2018, published 2021)
